Assay results: patent US5250679A, “Nonpeptidyl platelet aggregation inhibitors having specificity for the GPIIb III receptor” (Genentech, Inc., priority 1992, dated 1993)
Where a name gives a salt, the structure may show the parent alone. Read-outs that look alike come from different tables or passages of the source.

How the values were obtained:
[1] = target: T1, GP IIb IIIa (Homo sapiens, UniProt P05106+P08514); assay: Fibrinogen-GP IIb IIIa Receptor ELISA Binding Assay (Fg/IIbIIIa)
T1 construct: from tissue; host or cells: outdated human platelets
T1 sequence (P08514 32-887 limits assumed): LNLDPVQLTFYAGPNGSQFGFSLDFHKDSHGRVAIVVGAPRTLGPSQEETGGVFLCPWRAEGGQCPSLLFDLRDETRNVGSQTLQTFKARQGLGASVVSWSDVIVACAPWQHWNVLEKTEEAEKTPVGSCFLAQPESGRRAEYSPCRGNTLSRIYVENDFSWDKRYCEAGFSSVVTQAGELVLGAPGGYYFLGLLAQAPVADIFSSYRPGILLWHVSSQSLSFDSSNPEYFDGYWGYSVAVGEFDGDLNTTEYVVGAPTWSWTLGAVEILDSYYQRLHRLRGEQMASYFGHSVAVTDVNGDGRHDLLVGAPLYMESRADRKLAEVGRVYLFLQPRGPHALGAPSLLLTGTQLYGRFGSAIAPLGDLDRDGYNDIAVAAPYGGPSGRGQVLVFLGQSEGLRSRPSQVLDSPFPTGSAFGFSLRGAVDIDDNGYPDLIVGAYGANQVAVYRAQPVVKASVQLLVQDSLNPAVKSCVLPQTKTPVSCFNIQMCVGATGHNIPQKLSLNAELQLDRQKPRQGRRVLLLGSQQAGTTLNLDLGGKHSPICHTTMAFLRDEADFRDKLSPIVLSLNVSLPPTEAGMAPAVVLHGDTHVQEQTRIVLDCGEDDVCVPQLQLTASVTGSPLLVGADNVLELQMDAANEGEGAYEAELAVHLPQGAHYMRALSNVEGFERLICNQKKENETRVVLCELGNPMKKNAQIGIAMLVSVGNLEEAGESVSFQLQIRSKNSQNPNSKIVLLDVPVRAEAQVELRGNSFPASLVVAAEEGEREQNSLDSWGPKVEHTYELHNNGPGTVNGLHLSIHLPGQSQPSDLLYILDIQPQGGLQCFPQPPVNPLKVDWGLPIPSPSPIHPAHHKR
T1 sequence (P08514 891-1039 partner limits assumed): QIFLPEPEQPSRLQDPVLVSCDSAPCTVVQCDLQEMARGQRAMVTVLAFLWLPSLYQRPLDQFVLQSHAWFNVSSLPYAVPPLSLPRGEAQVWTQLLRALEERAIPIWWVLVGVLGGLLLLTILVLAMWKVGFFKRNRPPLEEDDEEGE
T1 sequence (P05106 27-788): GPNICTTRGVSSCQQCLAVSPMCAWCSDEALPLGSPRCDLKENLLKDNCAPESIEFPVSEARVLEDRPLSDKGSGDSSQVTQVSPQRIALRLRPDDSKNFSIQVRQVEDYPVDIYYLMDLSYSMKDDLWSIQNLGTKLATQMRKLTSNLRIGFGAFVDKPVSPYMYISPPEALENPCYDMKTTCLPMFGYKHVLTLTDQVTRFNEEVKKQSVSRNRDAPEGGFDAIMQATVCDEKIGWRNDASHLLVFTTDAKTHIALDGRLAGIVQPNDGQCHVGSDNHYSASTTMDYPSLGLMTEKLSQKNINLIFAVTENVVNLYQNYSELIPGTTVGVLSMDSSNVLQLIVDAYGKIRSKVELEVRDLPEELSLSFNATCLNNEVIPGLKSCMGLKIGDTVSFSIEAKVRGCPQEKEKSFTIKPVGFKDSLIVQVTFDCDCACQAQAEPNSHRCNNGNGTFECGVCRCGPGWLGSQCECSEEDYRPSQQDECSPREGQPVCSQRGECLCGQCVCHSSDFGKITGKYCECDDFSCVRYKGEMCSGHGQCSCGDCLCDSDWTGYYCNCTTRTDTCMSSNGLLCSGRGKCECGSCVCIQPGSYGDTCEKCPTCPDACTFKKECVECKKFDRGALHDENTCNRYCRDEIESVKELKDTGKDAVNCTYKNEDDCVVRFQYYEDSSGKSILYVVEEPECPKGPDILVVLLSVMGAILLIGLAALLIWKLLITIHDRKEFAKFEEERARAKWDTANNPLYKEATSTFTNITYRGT
How it was run: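 Purified human platelet GP IIb IIIa binding to immobilised purified fibrinogen was run with compound at room temperature for 1 h. IC50 values were determined.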

[2] = target: T2, Human Vitronectin receptor (av b3) (Homo sapiens, UniProt P05106+P06756); assay: Human Vitronectin-Vitronectin Receptor (av b3) ELISA Assay (Vn/VnR); assay type: binding; conditions: Example 30, G # table
T2 construct: is purified from human placenta; from tissue; host or cells: human placenta
T2 sequence (P06756 31-889 limits assumed): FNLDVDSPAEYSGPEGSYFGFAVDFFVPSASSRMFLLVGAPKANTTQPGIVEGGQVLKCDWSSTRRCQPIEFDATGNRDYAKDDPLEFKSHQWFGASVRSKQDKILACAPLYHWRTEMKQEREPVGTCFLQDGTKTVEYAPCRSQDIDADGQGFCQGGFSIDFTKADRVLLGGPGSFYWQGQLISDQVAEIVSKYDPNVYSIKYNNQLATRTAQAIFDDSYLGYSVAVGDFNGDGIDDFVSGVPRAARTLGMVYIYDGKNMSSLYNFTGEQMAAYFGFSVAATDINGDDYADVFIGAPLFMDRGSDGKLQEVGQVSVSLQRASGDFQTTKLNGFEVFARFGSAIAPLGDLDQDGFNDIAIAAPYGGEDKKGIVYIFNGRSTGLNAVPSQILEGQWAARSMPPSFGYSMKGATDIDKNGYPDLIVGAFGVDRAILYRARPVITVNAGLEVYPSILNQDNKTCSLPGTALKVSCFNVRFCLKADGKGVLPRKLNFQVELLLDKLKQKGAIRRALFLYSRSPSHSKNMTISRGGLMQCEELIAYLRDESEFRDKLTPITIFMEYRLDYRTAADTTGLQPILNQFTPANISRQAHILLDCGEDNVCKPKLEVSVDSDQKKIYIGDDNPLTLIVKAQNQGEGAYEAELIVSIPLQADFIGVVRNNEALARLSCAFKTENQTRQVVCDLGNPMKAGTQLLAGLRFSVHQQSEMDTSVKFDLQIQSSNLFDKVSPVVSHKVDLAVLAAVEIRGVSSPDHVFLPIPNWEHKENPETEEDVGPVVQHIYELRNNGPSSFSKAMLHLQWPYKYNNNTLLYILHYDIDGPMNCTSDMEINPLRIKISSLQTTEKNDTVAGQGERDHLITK
T2 sequence (P06756 891-1048 partner limits assumed): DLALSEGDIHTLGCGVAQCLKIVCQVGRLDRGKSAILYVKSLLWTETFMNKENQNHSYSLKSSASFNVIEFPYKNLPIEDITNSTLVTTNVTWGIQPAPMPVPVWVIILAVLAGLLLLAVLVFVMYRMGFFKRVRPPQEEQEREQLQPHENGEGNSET
T2 sequence (P05106 27-788): as the sequence (P05106 27-788) above
From the text: Human vitronectin (Vn) is isolated from human plasma and purified by affinity chromatography by the method of Yatohgo et. al., (Cell Structure and Function 13: 281-292 [1988]).
Human vitronection receptor (VnR) is purified from human placenta by the method of Pytela et al., (Methods Enzymol., 144: 475 [1987]). Alternatively the av b3 receptor can be purified from some cell lines (e.g., human embryonic kidney 293 cells) transfected with DNA sequences for both the av and b3 subunits. The subunits are purified by employing octylglucoside extraction followed by Con-A, Heparin-Sepharose, and S-300 Chromatography.
This mouse Mab is specific for the b3 subunit of the vitronectin receptor.
Rabbit Fab 2 anti-mouse Fc fragment horse radish peroxidase conjugate (anti-MuFc HRP) is obtained from PelFreeze (cat. no. 715305-1).
Maxisorp microtiter plates are coated with 2 mg/ml human vitronectin dissolved in PBS (50 ml/well) and stored overnight at 4° C. The plates are washed two times with PBS-0.05% Tween-20 (wash buffer) and blocked by incubating with about 150 ml/well of assay buffer (1%, BSA [RIA grade or better] in 50 mM Tris-HCl, 100 mM NaCl, 1 mM MgCl2, CaCl2, MnCl2 pH 7.4) for 60 minutes. […] The blocked plates are emptied and 25 ml/well of inhibitor or standard solution is added to each well. Twenty-five ml of a 30 mg/ml solution of purified av b3 in assay buffer is pipetted into the coated plate. The final concentration of receptor in the assay well is about 15 mg/ml. The plate is incubated on a shaker for 60 minutes. Meanwhile, for each microtite plate, 6 ml buffer solution containing 1.5 mg/ml of mouse monoclonal antibody specific for b3 is prepared. To this solution is added ml of the secondary antibody, which is anti-mouse-Fc-HRP antibody conjugate. For example, for one plate, prepare 6 ml of a 1.5 mg/ml mouse Mab solution to which is added 1 ml of anti-mouse-Fc-HRP antibody stock, (this represents a 1:6000 dilution of the antibody-HRP conjugate). This mixture is allowed to incubate during the receptor-inhibitor incubation. The assay plates are washed 4 times with PBS-Tween and 50 ml/well of the antibody mixture is then pipetted into the plate for a 60 minute incubation. The plate is washed 4 times and the color reaction is developed with 50 ml/well of 0.67 mg/ml o-phenyldiamine in PBS containing 0.012% H2 O2. Alternatively, 16 mM citric acid, 50 mM Na2 PO4 at pH 5.0 can be used as a substrate buffer. The reaction is stopped with 50 ml/well 1 M H2 SO4. The plates are read at 492-405 nm and the data analyzed by four-parameter fit.

[3] = tested on: human platelet rich plasma (PRP); assay: In Vitro Human Platelet Aggregation Assay (PA); assay type: cell-based
Method: In addition to the GPIIb IIIa ELISA assay, platelet aggregation assays may be performed in human platelet rich plasma (PRP). […] The blood is centrifuged at 160×g for 10 min at 22° C. and then allowed to stand for 5 min after which the PRP is decanted. Platelet poor plasma (PPP) is isolated from the remaining blood after centrifugation at 2000×g for 25 min. The platelet count of the PRP is adjusted to ca. 300,000 per microliter with PPP.
A 225 mL aliquot of PRP plus 25 mL of either a dilution of the test sample or a control (PBS) is incubated for 5 min in a Chrono-log Whole Blood Aggregometer at 25° C. An aggregating agent (collagen, 1 mg/ml; U46619, 100 ng/ml; or ADP, 8 mM) is added and the platelet aggregation recorded.
Platelet aggregation assays are performed in human platelet rich plasma (PRP). […] The blood is centrifuged at 160×g for 10 minutes at 22° C. and allowed to stand for 5 minutes after which the PRP is decanted. Platelet poor plasma (PPP) is isolated from the remaining blood after centrifugation at 2000×g for 25 minutes. The platelet count of the PRP is diluted to about 300,000 platelets per microliter with PPP.
A 225 ml aliquot of PRP plus 25 ml of either a dilution of the test inhibitor sample or a control (PBS) is incubated for 5 minutes in a Chrono-log Whole Blood Aggregometer at 25° C. An aggregating agent (collagen, 1 mg/ml; U46619, 100 ng/ml; or ADP, 17 mM) is added and the transmission is recorded.

[4] = Example 29, Cmpd # 1-105, read-out: IC50 Fg/IIbI
[5] = Example 30, G # table, read-out: IC50 (μM) Fg/IIbIIIa
[6] = Homo sapiens, Platelet, citrate, read-out: PA IC50 (μM) (citrate)
[7] = Homo sapiens, Platelet, heparin, read-out: PA IC50 (μM) (heparin)
[8] = Examples 29 and 30, Cmpd # tables, read-out: IC50 (μM) Fg/IIbIIIa

Row | SMILES | IC50 [1, 4] [µM] | IC50 [1, 5] [µM] | IC50 [2] [µM] | IC50 [3, 6] [µM] | IC50 [3, 7] [µM] | IC50 ([3]; heparin, read-out: PA IC50 (μM) (heparin)) [µM] | IC50 [1, 8] [µM]
1 | N=C(N)NCCCc1ccc2c(c1)C(=O)N(CCC(=O)O)CC(=O)N2 [Cmpd 2] | 0.714 | 0.714 | > 10 | > 5 | – | – | –
2 | CN1C(=O)CN(CCC(=O)O)C(=O)c2cc(C#CCCNC(=N)N)ccc21 [Cmpd 22] | 0.14 | 0.14 | > 10 | 8.96 | – | – | –
3 | CN1C(=O)CN(CCC(=O)O)C(=O)c2cc(C#CCCCNC(=N)N)ccc21 [Cmpd 34, 1-methyl-4-(2-carboxyethyl)-7-(5-guanidino-1-pentynyl)-3,4-dihydro-1H-1,4-benzodiazepine-2,5-dione trifluroacetate] | 0.0036 | 0.0036 | > 10 | 3.1 | 7.5 | – | –
4 | NCCCC#Cc1ccc2c(c1)C(=O)N(CCC(=O)O)CC(=O)N2Cc1cccc([N+](=O)[O-])c1 [Cmpd 35, 1-(3-nitrobenzyl)-4-(2-carboxyethyl)-7-(5-amino-1-pentynyl)-3,4-dihydro-1H-1,4-benzodiazepine-2,5-dione trifluroacetate] | 0.013 | 0.013 | > 10 | 2.4 | 8 | 9.53 | –
5 | CN1C(=O)CN(CCC(=O)O)C(=O)c2cc(C#CCCCCNC(=N)N)ccc21 [Cmpd 42, 1-(methyl)-4-(2-carboxyethyl)-7-(6-guanidino-1-hexynyl)-3,4-dihydro-1H-1,4-benzodiazepine-2,5-dione trifluroacetate] | 0.06 | 0.009 | > 10 | 2.66 | – | – | –
6 | CN1C(=O)CN(CCC(=O)O)C(=O)c2cc(C#Cc3ccc(CN)cc3)ccc21 [Cmpd 43, 1-(methyl)-4-(2-carboxyethyl)-7-[4-(aminomethyl)phenyl]ethynyl-3,4-dihydro-1H-1,4-benzodiazepine-2,5-dione trifluroacetate] | 0.012 | 0.012 | > 10 | 1.7 | 3.34 | – | –
7 | CN1C(=O)CN(CCC(=O)O)C(=O)c2cc(C#Cc3ccc(CNC(=N)N)cc3)ccc21 [Cmpd 44, 1-(methyl)-4-(2-carboxyethyl)-7-[4-(guanidinomethyl)phenyl]ethynyl-3,4-dihydro-1H-1,4-benzodiazepine-2,5-dione trifluroacetate] | 0.012 | 0.012 | > 10 | 8.8 | 14.3 | – | –
8 | NCCCCC#Cc1ccc2c(c1)C(=O)N(CCC(=O)O)CC(=O)N2Cc1cccc([N+](=O)[O-])c1 [Cmpd 55, 1-(3-nitrobenzyl)-4-(2-carboxyethyl)-7-(6-amino-1-hexynyl)-3,4-dihydro-1H-1,4-benzodiazepine-2,5-dione trifuroacetate] | 0.008 | 0.008 | > 10 | – | 2.2 | – | –
9 | N=C(N)NCCCCC#Cc1ccc2c(c1)C(=O)N(CCC(=O)O)CC(=O)N2Cc1cccc([N+](=O)[O-])c1 [Cmpd 56, 1-(3-nitrobenzyl)-4-(2-carboxyethyl)-7-(6-guanidino-1-hexynyl)-3,4-dihydro-1H-1,4-benzodiazepine-2,5-dione trifluroacetate] | 0.006 | 0.006 | > 10 | – | 15 | – | –
10 | NCCCCC#Cc1ccc2c(c1)C(=O)N(CCC(=O)O)CC(=O)N2Cc1ccc(Cl)cc1 [Cmpd 60] | 0.014 | 0.014 | > 10 | 2.12 | – | – | –
11 | N=C(N)NCCCCCc1ccc2c(c1)C(=O)N(CCC(=O)O)CC(=O)N2Cc1ccc(Cl)cc1 [Cmpd 63] | 0.011 | 0.011 | > 10 | 2.55 | – | – | –
12 | NCCCCCCc1ccc2c(c1)C(=O)N(CCC(=O)O)CC(=O)N2Cc1ccc(Cl)cc1 [Cmpd 64, 1-(4-chlorophenyl)methyl-4-(2-carboxyethyl)-7-(6-aminohexyl)-3,4-dihydro-1H-1,4-benzodiazapine-2,5-dione] | 0.014 | 0.014 | > 10 | 1.2 | 4.76 | – | –
13 | NCCCCCCCc1ccc2c(c1)C(=O)N(CCC(=O)O)CC(=O)N2Cc1ccc(Cl)cc1 [Cmpd 66] | 0.026 | 0.026 | > 10 | 3.88 | – | – | –
14 | NCCCCCc1ccc2c(c1)C(=O)N(CCC(=O)O)CC(=O)N2C(c1ccccc1)c1ccccc1 [Cmpd 68, 1-(diphenylmethyl)-4-(2-carboxyethyl)-7-(5-aminopentyl)-3,4-dihydro-1H-1,4-benzodiazepine-2,5-dione trifluoroacetate] | 0.02 | 0.028 | > 10 | 1.66 | 3.4 | – | –
15 | N=C(N)NCCCCCc1ccc2c(c1)C(=O)N(CCC(=O)O)CC(=O)N2C(c1ccccc1)c1ccccc1 [Cmpd 69, 1-(diphenylmethyl)-4-(2-carboxyethyl)-7-(5-guanidinopentyl)-3,4-dihydro-1H-1,4-benxodiazepine-2,5-dione trifluoroacetate] | 0.082 | 0.082 | > 10 | 2.09 | 3.9 | – | –
16 | N=C(N)NCCCC#Cc1ccc2c(c1)C(=O)N(CCC(=O)O)CC(=O)N2C(c1ccccc1)c1ccccc1 [Cmpd 71] | 0.008 | 0.008 | > 10 | 0.34 | 0.95 | – | –
17 | NCCCCCCc1ccc2c(c1)C(=O)N(CCC(=O)O)CC(=O)N2C(c1ccccc1)c1ccccc1 [Cmpd 72, 1-(diphenylmethyl)-4-(2-carboxyethyl)-7-(6-aminohexyl)-3,4-dihydro-1H-1,4-benzodiazepine-2,5-dione trifluoroacetate] | 0.022 | 0.022 | > 10 | 0.46 | 1.1 | – | –
18 | N=C(N)NCCCC#Cc1ccc2c(c1)C(=O)N(CCC(=O)O)CC(=O)N2Cc1cccc(NC(=O)CNC(=N)N)c1 [Cmpd 107] | – | 0.018 | > 10 | 0.61 | 0.89 | – | 0.018
19 | NCCCCCCc1ccc2c(c1)C(=O)N(CCC(=O)O)CC(=O)N2Cc1cccc(NC(=O)CN)c1 [Cmpd 108] | – | 0.012 | > 10 | 0.55 | 1.09 | – | 0.012
20 | N=C(N)NCCCCCCc1ccc2c(c1)C(=O)N(CCC(=O)O)CC(=O)N2Cc1cccc(NC(=O)CNC(=N)N)c1 [Cmpd 109] | – | 0.017 | > 10 | 1.19 | – | – | 0.017
21 | NCCCCCCc1ccc2c(c1)C(=O)N(CCC(=O)O)CC(=O)N2Cc1cccc(NC(=O)CCN)c1 [Cmpd 110, 1-[3-(3-aminopropionyl)aminophenyl]methyl-4-(2-carboxyethyl)-7-(6-aminohexyl)-3,4-dihydro-1H-1,4-benzodiazapine-2,5-dione bistrifluoroacetate] | – | 0.008 | > 10 | 0.28 | 0.83 | – | 0.008
22 | N=C(N)NCCCCCCc1ccc2c(c1)C(=O)N(CCC(=O)O)CC(=O)N2Cc1cccc(NC(=O)CCNC(=N)N)c1 [Cmpd 111] | – | 0.01 | > 10 | 1.14 | 1.49 | – | 0.01
23 | NCCCCCCc1ccc2c(c1)C(=O)N(CCC(=O)O)CC(=O)N2Cc1cccc(N)c1 [Cmpd 122] | – | 0.01 | – | 0.49 | – | – | 0.012
24 | CCCCC(=O)Nc1cccc(CN2C(=O)CN(CCC(=O)O)C(=O)c3cc(CCCCCCN)ccc32)c1 [Cmpd 123] | – | 0.015 | – | 0.64 | – | – | 0.015
25 | CCCCC(=O)Nc1cccc(CN2C(=O)CN(CCC(=O)O)C(=O)c3cc(CCCCCCNC(=N)N)ccc32)c1 [Cmpd 124] | – | 0.012 | – | 2.76 | – | – | 0.012
26 | N=C(N)Nc1ccc(C(=O)Nc2cccc(CN3C(=O)CN(CCC(=O)O)C(=O)c4cc(CCCCCCN)ccc43)c2)cc1 [Cmpd 127, 1-(3-(4-guanidinobenzoyl)aminophenyl)methyl-4-(2-carboxyethyl)-7-(6-aminohexyl)-3,4-dihydro-1H-1,4-benzodiazapine-2,5-dione] | – | 0.008 | – | 0.35 | – | – | 0.008
